Where no end group is shown, it is not given here.
Tests used:
[1] = tested on: C. caviae infected HeLa cells; assay: Host cell death (condensed nuclei) in C. caviae infected cells; assay type: cell-based; settings: peptide-treated HeLa cells; listed as EQ ID NO:7
Experimental: (§1) FIG. 12 depicts (A) low-magnification view of C. trachomatis LGV-L2 infected HeLa monolayers (30 h) treated with SEQ ID NO:7 or SEQ ID NO:11 peptides. (B) The frequency of condensed nuclei in treated cells is dependent on peptide concentration and Chlamydia infection. (C-D) Toxicity of CPAF inhibitors to Chlamydia-infected cells is observed in non-myeloid cells including human embryonic kidney cells HEK293 (C) and mouse embryo fibroblasts (D). […] (F-G) Cell death induced by anti-CPAF peptides requires Caspase-1 activation. HeLa cells infected with C. muridarum were treated with Ac-YVAD-CMK at 2 hpi, SEQ ID NO:7 peptide or SEQ ID NO:11 control peptide at 12 hpi and the percentage of infected cells with condensed nuclei was assessed at 48 hpi (F). Mouse lung fibroblasts (MLF) derived from congenic WT, ICE1^−/− and ASC^−/− animals were infected with C. muridarum and treated with the indicated concentrations of anti peptides 12 hpi. The percentage of infected cells with condensed nuclei was assessed at 48 hpi (G). LGV-L2 inclusions were immunostained with anti-L2 antisera and C. muridarum and C. caviae inclusions were immunostained with an anti-chlamydial LPS monoclonal antibody. Cell death in infected and uninfected cells treated with CPAF inhibitory peptides or control peptides was determined by counting the number of condensed nuclei of ˜1000 cells.

[2] = tested on: epithelial cells infected with C. muridarum; assay: Host cell death (condensed nuclei) in C. muridarum infected cells; assay type: cell-based; settings: dose-dependent, peptide at 12 hpi
Experimental: as §1

CPAF = CPAF (Chlamydia trachomatis serovar D, UniProt O84866); assay type: biochemical, C. trachomatis; set-up: 6xHis; made in house; host or cells: E. coli (pET30b); settings: GST-chlamydial substrates in presence of peptides
Experimental: FIG. 4 depicts (A) Recombinant Chlamydia ORFs were tested for sensitivity to host and bacterial derived proteases. […] Purified his-tagged CPAF was incubated with GST-tagged chlamydial substrates at 37° C. for 20 min with increasing amounts of lactacystin. Cleavage products were run on an SDS PAGE gel and visualized with Coomassie blue staining. (C) Schematic summary of CPAF targets. […] Membranes from Chlamydia-infected HeLa cells were harvested and purified at 0, 24, 36 and 48 hours post-infection, and the abundance of the chlamydial proteins Ct005, IncC and IncD were monitored with specific antibodies. Na/K ATPase and IncG served as host and bacterial-loading controls, respectively.
Cytosols from Chlamydia-infected HeLa cells (40 hrs) or recombinant his-tagged CPAF were pre-treated with rabbit polyclonal anti-CPAF or anti-IncA antisera, and incubated with GST-tagged Chlamydia proteins for 20 min at 37° C. […] Three example proteins shown include a type-III secretion (T3S) core component (CdsQ) a T3S chaperone (Mcsc) and a T3S needle component (Ct584). Processing of recombinant proteins in A-B were monitored by immunoblot analysis with specific antibodies. (C) Protease inhibitor profile of recombinant CPAF. Example shown for the chlamydial substrate GST-IncC. Degradation products were visualized by SDS-PAGE followed by staining with Coomassie blue. […]
Uninfected and HeLa cells pre-infected with L2 for 30 hrs were treated with inhibitory peptides and infected with EBs for 10 min Tarp translocation was indirectly visualized with an anti-phosphotyrosine antibody (A) and quantified by counting 50 separate cells (B). The stability of newly translocated Tarp was assessed by infecting cells as in (A) but with S^35-labeled EBs, followed by sequential immunoprecipitation of Tarp and MOMP and Phosphoimager analysis of precipitated material (C (I-IV)). […] IC50 values were determined by assessing CPAF cleavage of an Abz-tagged CPAF substrate (SEQ ID NO:9) by HPLC. […] Extracellular bacteria were determined. […] The number of internalized EBs was quantified per cell (H). […]

[3] = tested on: Chlamydia-infected HeLa cells; assay: Apoptosis markers (AnnexinV staining, Caspase-3 cleavage) in infected HeLa cells; assay type: cell-based, C. trachomatis; settings: peptide 12.5 μM at 12 hpi
Experimental: FIG. 11 depicts (A) that inhibiting CPAF activity induces host cell death. The indicated peptides (anti-CPAF peptide refers to SEQ ID NO:7) were added to infected cells 12 hpi and the percentage of infected cells with condensed nuclei was quantified at the indicated times. (B-C) Inhibition of CPAF activity induces apoptosis. Infected cells were treated with peptides and the percentage of AnnexinV-FITC positive (propidium iodide (PI) negative) was determined by flow cytometry (B). In parallel samples, cleavage of Caspase-3, a hallmark of apoptosome activation, was monitored by immunoblot analysis. Actin and MOMP are host and bacterial loading controls respectively. […] Infected cells were treated as in (A) in the presence or absence of ZVAD-FMK, labeled with PI and analyzed by flow cytometry. […]
Subsequent experiments tested whether CPAF inhibition led to the onset of apoptosis in infected cells. […] Apoptotic cells were identified with an AnnexinV-FLOUS Staining Kit (available from Roche) and activation of Caspase-1 was determined by labeling active Caspase-1 with a Carboxyfluorescein FLICA Detection Kit (available from Immunochemistry) and analyzed in a FACScanner (available from BD Biosciences). […] Consistent with result, Caspase-3 cleavage, another characteristic of apoptotic cell death, was not detected (FIG. 11C).

CPAF, sequence (O84866 1-234, added parts left off): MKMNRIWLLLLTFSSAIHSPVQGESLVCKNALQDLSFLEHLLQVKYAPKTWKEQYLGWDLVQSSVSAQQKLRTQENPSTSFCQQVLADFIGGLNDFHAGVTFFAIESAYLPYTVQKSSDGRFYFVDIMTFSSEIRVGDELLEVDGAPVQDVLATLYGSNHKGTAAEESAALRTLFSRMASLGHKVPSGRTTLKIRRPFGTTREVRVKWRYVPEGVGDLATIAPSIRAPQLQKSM
CPAF, sequence (O84866 276-601): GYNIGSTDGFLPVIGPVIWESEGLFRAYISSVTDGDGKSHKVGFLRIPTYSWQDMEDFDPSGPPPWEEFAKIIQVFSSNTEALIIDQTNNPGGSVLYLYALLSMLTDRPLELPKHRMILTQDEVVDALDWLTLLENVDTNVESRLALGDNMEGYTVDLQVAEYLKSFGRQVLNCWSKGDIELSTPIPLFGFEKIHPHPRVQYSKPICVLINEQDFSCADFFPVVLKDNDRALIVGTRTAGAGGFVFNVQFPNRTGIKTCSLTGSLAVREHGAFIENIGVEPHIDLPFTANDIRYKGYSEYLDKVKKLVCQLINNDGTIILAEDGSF

**Q.** “SLFYSPMVPHFWAELRNHYATSGLKRRRRRRRRR-NH2 [SEQ ID NO:7]” was tested. Which “Condensed nuclei / cell death in C. caviae infected cells” value [1] did it give?
**A.** The value was “do not cause cell death”.

**Q.** And the “Number of condensed nuclei in C. muridarum infected cells” value [2]?
**A.** The value was “marked increase in the number of condensed nuclei”.

**Q.** What about the “Inhibition of degradation of CPAF substrates in vitro” value (CPAF) of the same substance?
**A.** The value was “broadly inhibited degradation of CPAF substrates”.

**Q.** What about the “AnnexinV staining of infected cells” value [3] of the same substance?
**A.** Its value is “did not stain for AnnexinV”.

**Q.** And the “Caspase-3 cleavage in infected cells” value ([3]; immunoblot)?
**A.** The value was “not detected”.

— US8617563B2, “Antichlamydial agents” (Duke University, priority 2011, dated 2013)
